Key:
rat plasma = test: Rat protein binding, equilibrium dialysis of rat plasma; assay type: in vitro ADME; settings: 24 hours dialysis at 37° C.
Protocol: The extent of in vitro binding of Compound (1F), […], or W-212393 to rat plasma was determined as an assessment of the protein binding of each compound, i.e., compound unavailable for modulating receptor activity. Plasma from rats containing a tested compound in one chamber of a dialysis cell was dialyzed with PBS in the other chamber; thereafter, the supernatant from each chamber was analyzed for the concentration of the tested compound present. A cell suitable for equilibrium dialysis was used in the determinations. The dialysis membrane described in Example 10 (with molecular mass cutoff of 12,000-14,000 Da) separated the dialysis cell into two chambers. The membrane was soaked with purified water and PBS before being placed into the dialysis cell. 4 μL of an iv formulation of each tested compound was added to 996 μL of rat plasma, the latter obtained using syringe containing heparin and EDTA by the procedure described in Example 10, to provide a plasma sample with a tested compound concentration of 2 μg/mL. 450 μL of the plasma sample was applied to one chamber (plasma chamber) of the dialysis cell. A 450 μL aliquot of PBS was applied to the other chamber (PBS chamber) of the dialysis cell. The dialysis study was conducted in duplicate for each tested compound. After 24 hours of equilibrium dialysis at 37° C., 30 μL of liquid from the plasma chamber of the dialysis cell was collected and to this was added 270 μL of fresh PBS (this combination was designated Sample “1”). Then, 270 μL of liquid from the PBS chamber of the dialysis cell was collected and to this was added 30 μL of control rat plasma (i.e., rat plasma never exposed to any test compound, this combination was designated Sample “2”). Thereafter, each sample was mixed well and stored in a freezer until the next analysis step. After the protein precipitated in the freezer, each supernatant thusly obtained was analyzed by LC-MS-MS for unbound test compound. […] Thereafter, the percentage of rat protein-bound (“RPB”) tested compound was calculated as follows: […]

[1] = In vivo bioavailability after oral dosing; settings: male, Sprague-Dawley [Crl:CD(SD)], rat, plasma; 1 mg/kg oral, non-fasted; mean of multiple determinations

In the case of `CNC(=O)Cn1c(=O)n(C2CCN([C@@H]3Cc4cccc5cccc3c45)CC2)c2ccccc21` [Compound W-212393], the “stability in rat plasma during the determination” value (rat plasma) is reported as “unstable in plasma” and the bioavailability [1] is reported as 2.1%.
